Key:
[1] = test system: Lgr5-positive cochlear cells; assay: Expansion of Lgr5-positive cells (cochlear stem cell expansion, Lgr5-GFP flow cytometry); format: cell-based; conditions: 240 h; Lgr5-GFP mouse cochlear cells, 10 days in culture; read-out: Potency (Lgr5-positive cell expansion)
Description: Lgr5-EGFP-IRES-Cre-ER mice (Barker et al., 2007) (http://jaxmice.jax.org/strain/008875.html) are used to analyze the effects of small molecules on cochlear stem cell expansion.
Isolation of stem cells from the inner ear: All animal studies are conducted under an approved institutional protocol according to National Institutes of Health guidelines. For experiments with neonatal mice (postnatal days 1-3), the cochleae are dissected in HBSS and the organ of Corti are separated from the stria vascularis and the modiolus. The organs of Corti are then treated with Cell Recovery Solution (Corning) for 1 h to separate cochlear epithelium from the underlying mesenchyme. Epithelia are then collected and treated with TrypLE (Life Technologies) for 15-20 minutes at 37° C. Single cells obtained by mechanical trituration are filtered (40 μm) and suspended in Matrigel (Corning) for 3D culture. […]
Lgr5-positive cells are quantified after 10 days (D10) in culture in multiple conditions. […] The cells are then stained with propidium iodide (PI) and are analyzed using a flow cytometer for Lgr5-GFP expression. The number of GFP-positive cells and the percentage of GFP-positive cells are quantified.

recombinant human GSK3β = recombinant human GSK3β (Homo sapiens, UniProt P49841); assay: in vitro enzymatic assay (Kinase-Glo Max) for inhibition of GSK3β; format: biochemical; conditions: 10 uM ATP
Description: (§1) Enzymatic activities of compounds of the present disclosure are tested with recombinant human GSK3 using an in vitro enzymatic assay for inhibition GSK3α and GSK3β.
(§2) The assay was performed using Kinase-Glo Max luminescence kinase assay kit (Promega). It measures kinase activity by quantitating the amount of ATP remaining in solution following a kinase reaction. The luminescent signal from the assay is correlated with the amount of ATP present and is inversely correlated with the amount of kinase activity. The compounds were diluted in 10% DMSO) and 5 μl of the dilution was added to a 50 μl reaction so that the final concentration of DMSO is 1% in all of reactions. The enzymatic reactions were conducted at 30° C. for 40 minutes. […] After the enzymatic reaction, 50 μl of Kinase-Glo Max Luminescence kinase assay solution (Promega) was added to each reaction and incubate the plate for 15 minutes at room temperature. Luminescence signal was measured using a BioTek Synergy 2 microplate reader.
(§3) Kinase activity assays were performed in duplicate at each concentration. The luminescence data were analyzed using the computer software, Graphpad Prism. The difference between luminescence intensities in the absence of Kinase (Lut) and in the presence of Kinase (Luc) was defined as 100% activity (Lut−Luc). […]

recombinant human GSK3α = recombinant human GSK3α (Homo sapiens, UniProt P49840); assay: in vitro enzymatic assay (Kinase-Glo Max) for inhibition of GSK3α; format: biochemical; conditions: 10 uM ATP, 0.1 mg/ml GSKtide, 30° C. 40 minutes; read-out: Potency GSK-3alpha
Description: as §1, §2, §3

Chain of recombinant human GSK3β (P49841 whole entry): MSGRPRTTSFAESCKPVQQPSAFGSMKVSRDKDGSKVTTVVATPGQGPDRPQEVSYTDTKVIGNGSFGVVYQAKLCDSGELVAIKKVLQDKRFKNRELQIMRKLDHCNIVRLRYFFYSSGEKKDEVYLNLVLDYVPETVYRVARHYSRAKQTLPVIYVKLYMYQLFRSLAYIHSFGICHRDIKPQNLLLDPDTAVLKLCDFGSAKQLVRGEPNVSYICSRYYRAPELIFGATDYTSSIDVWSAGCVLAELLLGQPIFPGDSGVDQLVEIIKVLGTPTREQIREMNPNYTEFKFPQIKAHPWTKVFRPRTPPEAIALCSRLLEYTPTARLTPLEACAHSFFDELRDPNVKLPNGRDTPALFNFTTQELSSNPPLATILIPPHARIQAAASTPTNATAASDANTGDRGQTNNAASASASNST
Chain of recombinant human GSK3α (P49840 whole entry): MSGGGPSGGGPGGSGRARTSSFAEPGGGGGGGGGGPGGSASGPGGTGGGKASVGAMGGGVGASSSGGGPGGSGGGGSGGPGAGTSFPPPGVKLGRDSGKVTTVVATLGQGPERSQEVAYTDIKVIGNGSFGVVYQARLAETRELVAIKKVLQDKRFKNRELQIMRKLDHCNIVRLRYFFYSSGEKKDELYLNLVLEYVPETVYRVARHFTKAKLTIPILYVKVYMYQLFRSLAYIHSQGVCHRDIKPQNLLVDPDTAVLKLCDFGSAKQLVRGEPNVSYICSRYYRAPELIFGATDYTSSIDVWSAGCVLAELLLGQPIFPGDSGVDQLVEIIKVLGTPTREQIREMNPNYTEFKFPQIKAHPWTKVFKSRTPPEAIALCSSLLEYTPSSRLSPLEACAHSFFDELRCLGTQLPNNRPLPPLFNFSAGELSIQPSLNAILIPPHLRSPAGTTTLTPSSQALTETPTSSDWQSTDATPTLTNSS

| EC50 [1] [µM] | IC50 (recombinant human GSK3β; 0.1 mg/ml GSKtide, 30° C. 40 minutes, read-out: Potency GSK-3beta) [µM] | IC50 (recombinant human GSK3α) [µM] | inhibition at 10 µM (recombinant human GSK3β; at 10 uM compound, read-out: Potency GSK-3beta: % inhibition) [%] | Compound |
| --- | --- | --- | --- | --- |
| > 10 | 0.706 | 0.348 |  | O=C(N1CCCCC1)N1CCn2cc(-c3[nH][nH]c(=O)c3-c3cnc4ccccn34)c3cc(F)cc(c32)C1 [Compound I-4] |
| > 10 |  | 10 | 34 | O=C(N1CCCCC1)N1CCn2cc(-c3c(-c4cnc5ccccn45)[nH][nH]c3=O)c3cc(F)cc(c32)C1 [Compound I-52] |

— US20200316089A1, “1,2-DIHYDRO-3H-PYRAZOL-3-ONE COMPOUNDS AND METHODS OF USING SAME” (Frequency Therapeutics, Inc., priority 2017, published 2020)
